Test results taken from patent US12391698B2, “Substituted piperidines and piperazines and methods for the treatment of CNS disorders” (SUVEN LIFE SCIENCES LIMITED, priority 2022, dated 2025).
pKi: −log10 of the molar value. Structures can show the parent of a compound that is named as a salt. Where two headings read alike, the source gives them in different places.

Key:
[1] = biological target: T1, cloned human 5-HT2A receptor (Homo sapiens, UniProt P28223); experiment: Determination of Ki at 5-HT2A receptor (radioligand binding, [3H]-Ketanserine); conditions: CHO-K1 recombinant cells; [3H]-Ketanserine 1.25 nM; read-out: Ki h5-HT2A
T1 construct: expressed in transfected cells; host or cells: CHO-K1
Description: (§1) Compounds were tested according to the following procedure.
• Receptor source: Recombinant mammalian cells (CHO-K1) • Radioligand: [^3H]-Ketanserine (41.9 Ci/mmol) • Final ligand concentration: 1.25 nM • Non-specific determinant: 0.1 mM 1-Napthyl piperazine (1-NP) • Reference compound: 1-Napthyl piperazine (1-NP) • Positive control: 1-Napthyl piperazine (1-NP) Incubation Conditions:
(§2) Reactions were carried out in buffer with pH 7.4 containing 50 mM Tris-HCl, 4 mM CaCl2), 0.1% Ascorbic acid for 1 h at r.t. The reaction was terminated by rapid vacuum filtration onto the glass fiber filters. Radioactivity trapped onto the filters was determined and compared to the control values in order to ascertain any interactions of the test compound(s) with cloned human 5-HT2A receptor binding site.

[2] = biological target: cloned human SERT receptor (Homo sapiens, UniProt P31645); experiment: Determination of Ki at SERT receptor (SPA binding, [3H]-Citalopram); conditions: HEK293 recombinant cells, [3H]-Citalopram 2 nM, read-out: Ki hSERT
Description: as §1
• Receptor source: Recombinant mammalian cells (HEK293) • Radioligand: [^3H]-Citalopram (80.8 Ci/mmol) • Final ligand concentration: 2 nM • Non-specific determinant: 0.1 mM Venlafaxine • Reference compound: Venlafaxine • Positive control: Venlafaxine Incubation Conditions:
Reactions were carried out in buffer with pH 7.4 containing 50 mM Tris-HCl, 150 mM NaCl, 5 mM KCl and scintillation proximity assay (SPA) beads (0.1 mg/well) for 3 h at r.t. Radioactivity proximal to SPA beads was determined by scintillation proximity assay and compared to the control values in order to ascertain any interactions of the test compound(s) with cloned human SERT receptor binding site.
Reference: Journal of Pharmacology and Experimental Therapeutics, 1987, 242 (1), 364-371.

[3] = biological target: T2, cloned human 5-HT1A receptor (Homo sapiens, UniProt P08908); experiment: Determination of Ki at 5-HT1A receptor (radioligand binding, [3H]-8-Hydroxy DPAT); conditions: HEK293-EBNA recombinant cells; [3H]-8-Hydroxy DPAT 0.8 nM; read-out: Ki h5-HT1A
T2 construct: expressed in transfected cells; host or cells: HEK293-EBNA
T2 sequence (P08908 1-422): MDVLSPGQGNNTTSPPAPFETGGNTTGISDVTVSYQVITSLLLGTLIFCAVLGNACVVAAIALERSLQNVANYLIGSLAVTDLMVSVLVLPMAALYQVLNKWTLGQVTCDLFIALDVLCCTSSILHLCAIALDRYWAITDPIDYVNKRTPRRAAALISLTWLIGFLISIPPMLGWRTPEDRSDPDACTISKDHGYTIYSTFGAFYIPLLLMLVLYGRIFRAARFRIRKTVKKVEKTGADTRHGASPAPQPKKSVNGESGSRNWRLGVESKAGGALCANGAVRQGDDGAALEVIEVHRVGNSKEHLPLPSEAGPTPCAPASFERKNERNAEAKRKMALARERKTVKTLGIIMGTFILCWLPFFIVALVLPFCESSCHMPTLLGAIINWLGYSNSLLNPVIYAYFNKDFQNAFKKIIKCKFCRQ
Description: as §1
• Receptor source: Recombinant mammalian cells (HEK293-EBNA) • Radioligand: [^3H]-8-Hydroxy DPAT (200 Ci/mmol) • Final ligand concentration: 0.8 nM • Non-specific determinant: 0.1 mM U92016A • Reference compound: U92016A • Positive control: U92016A Incubation Conditions:
as §2, with “Tris-HCl, 0.5” for “Tris-HCl, 4”, “mM EDTA, 10 mM MgSO4,” for “mM CaCl2),”, “for 2” for “for 1”, “human 5-HT1A” for “human 5-HT2A”

[4] = biological target: T3, hD2S (cloned human dopamine D2S receptor) (Homo sapiens, UniProt P14416); experiment: Determination of Ki at D2S receptor (radioligand binding, [3H]-Raclopride); conditions: CHO-K1 recombinant cells; [3H]-Raclopride 4 nM; read-out: Ki hD2S
T3 construct: expressed in transfected cells; host or cells: CHO-K1
Description: as §1
• Receptor source: Recombinant mammalian cells (CHO-K1) • Radioligand: [^3H]-Raclopride (80.8 Ci/mmol) • Final ligand concentration: 4 nM • Non-specific determinant: 0.1 mM Haloperidol • Reference compound: Haloperidol • Positive control: Haloperidol Incubation Conditions:
as §2, with “Tris-HCl, 120” for “Tris-HCl, 4”, “mM NaCl, 5 mM KCl, 5 mM MgCl2, 1 mM EDTA” for “mM CaCl2), 0.1% Ascorbic acid”, “for 2” for “for 1”, “human dopamine […]” for “human 5-HT2A”

T1 sequence (P28223 whole entry): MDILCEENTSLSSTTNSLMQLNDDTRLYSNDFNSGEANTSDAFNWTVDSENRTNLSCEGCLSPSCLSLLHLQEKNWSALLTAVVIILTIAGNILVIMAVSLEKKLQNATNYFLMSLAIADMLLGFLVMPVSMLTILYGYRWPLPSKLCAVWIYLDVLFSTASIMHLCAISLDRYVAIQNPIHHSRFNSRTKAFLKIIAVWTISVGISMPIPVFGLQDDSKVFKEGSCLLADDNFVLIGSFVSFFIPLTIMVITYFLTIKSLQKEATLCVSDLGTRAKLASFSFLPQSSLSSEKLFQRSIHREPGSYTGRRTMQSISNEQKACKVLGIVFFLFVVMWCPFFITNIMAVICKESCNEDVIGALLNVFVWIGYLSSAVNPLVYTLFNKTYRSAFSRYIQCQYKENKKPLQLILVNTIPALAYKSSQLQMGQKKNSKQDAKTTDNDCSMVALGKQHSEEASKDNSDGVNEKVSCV
cloned human SERT receptor, sequence (P31645 whole entry): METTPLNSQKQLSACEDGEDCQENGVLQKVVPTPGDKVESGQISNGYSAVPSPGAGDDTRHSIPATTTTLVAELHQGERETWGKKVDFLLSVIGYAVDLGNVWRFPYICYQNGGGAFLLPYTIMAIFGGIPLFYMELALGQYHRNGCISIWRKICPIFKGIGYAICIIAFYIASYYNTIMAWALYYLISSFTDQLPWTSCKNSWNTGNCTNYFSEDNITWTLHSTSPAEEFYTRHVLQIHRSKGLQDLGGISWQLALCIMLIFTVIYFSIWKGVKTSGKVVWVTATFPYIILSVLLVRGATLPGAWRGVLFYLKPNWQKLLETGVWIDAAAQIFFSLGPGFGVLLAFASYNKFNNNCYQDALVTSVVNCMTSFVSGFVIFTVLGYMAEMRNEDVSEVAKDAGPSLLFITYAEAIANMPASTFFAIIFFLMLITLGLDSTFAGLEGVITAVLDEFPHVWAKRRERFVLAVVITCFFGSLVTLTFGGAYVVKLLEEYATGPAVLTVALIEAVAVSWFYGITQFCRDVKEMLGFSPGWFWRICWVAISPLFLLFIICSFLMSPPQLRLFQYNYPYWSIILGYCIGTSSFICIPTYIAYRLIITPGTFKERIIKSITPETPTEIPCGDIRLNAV
T3 sequence (P14416 1-414 isoform P14416-2): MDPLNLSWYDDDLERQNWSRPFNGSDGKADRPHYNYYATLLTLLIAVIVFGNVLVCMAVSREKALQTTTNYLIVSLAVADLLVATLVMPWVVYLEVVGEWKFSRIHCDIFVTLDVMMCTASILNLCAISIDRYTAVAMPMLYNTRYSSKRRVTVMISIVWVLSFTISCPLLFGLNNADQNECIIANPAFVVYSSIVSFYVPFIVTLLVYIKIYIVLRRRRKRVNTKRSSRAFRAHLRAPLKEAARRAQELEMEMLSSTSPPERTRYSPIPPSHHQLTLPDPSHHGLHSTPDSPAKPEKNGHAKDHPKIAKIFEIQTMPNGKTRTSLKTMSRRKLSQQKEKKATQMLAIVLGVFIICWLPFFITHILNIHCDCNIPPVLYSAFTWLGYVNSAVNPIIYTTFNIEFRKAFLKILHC

SMILES | pKi [1] | pKi [2] | pKi [3] | pKi [4] | Ki ([2]; cells printed in μM)
O=C1C[C@@H]2CCCN2C(=O)N1CCCCN1CCC(c2c[nH]c3ccc(F)cc23)CC1 [Example 7, 2-{4-[4-(5-Fluoro-1H-indol-3-yl)-piperidin-1-yl]-butyl}-tetrahydro-pyrrolo[1,2-c]pyrimidine-1,3-dione oxalate] | 7.30 | 7.41 | 8.74 | 8.35 | 
O=C1C[C@@H]2CCCCN2C(=O)N1CCCCN1CCN(c2nsc3ccccc23)CC1 [Example 12, 2-[4-(4-Benzo[d]isothiazol-3-yl-piperazin-1-yl)-butyl]-hexahydro-pyrido[1,2-c]pyrimidine-1,3-dione] | 9.22 | 6.74 | 10.00 | 9.22 | 
O=C1C[C@@H]2CCCCN2C(=O)N1CCCCN1CCC(c2noc3cc(F)ccc23)CC1 [Example 13, 2-{4-[4-(6-Fluoro-benzo[d]isoxazol-3-yl)-piperidin-1-yl]-butyl}-hexahydro-pyrido[1,2-c]pyrimidine-1,3-dione] | 8.60 | 5.79 | 7.83 | 8.60 | 
O=C1C[C@@H]2CCCCN2C(=O)N1CCCCN1CCC(c2c[nH]c3ccc(F)cc23)CC1 [Example 15, 2-{4-[4-(5-Fluoro-1H-indol-3-yl)-piperidin-1-yl]-butyl}-hexahydro-pyrido[1,2-c]pyrimidine-1,3-dione] | 7.27 | 7.57 | 8.66 | 8.54 | 
COc1ccc2[nH]cc(C3CCN(CCCCN4C(=O)C[C@@H]5CCCCN5C4=O)CC3)c2c1 [Example 16, 2-{4-[4-(5-Methoxy-1H-indol-3-yl)-piperidin-1-yl]-butyl}-hexahydro-pyrido[1,2-c]pyrimidine-1,3-dione] | 5.92 | 6.37 | 9.22 | 7.23 | 
O=C(OCc1ccccc1)N1CCN2C(=O)N(CCCCN3CCN(c4nsc5ccccc45)CC3)C(=O)C[C@@H]2C1 [Example 19, 7-[4-(4-Benzo[d]isothiazol-3-yl-piperazin-1-yl)-butyl]-6,8-dioxo-octahydro-pyrazino[1,2-c]pyrimidine-2-carboxylic acid benzyl ester] | 9.10 | 6.90 | 8.96 | 8.49 | 
O=C(OCc1ccccc1)N1CCN2C(=O)N(CCCCN3CCN(c4nsc5ccccc45)CC3)C(=O)C[C@@H]2C1 [Example 20, 7-[4-(4-Benzo[d]isothiazol-3-yl-piperazin-1-yl)-butyl]-6,8-dioxo-octahydro-pyrazino[1,2-c]pyrimidine-2-carboxylic acid benzyl ester fumarate] | 8.96 | 6.83 | 8.89 | 8.57 | 
O=C(OCc1ccccc1)N1CCN2C(=O)N(CCCCN3CCC(c4noc5cc(F)ccc45)CC3)C(=O)CC2C1 (stereo not shown) [Example 22, 7-{4-[4-(6-Fluoro-benzo[d]isoxazol-3-yl)-piperidin-1-yl]-butyl}-6,8-dioxo-octahydro-pyrazino[1,2-c]pyrimidine-2-carboxylic acid benzyl ester fumarate] | 8.82 | 6.56 | 7.08 | 8.60 | 
O=C1C[C@@H]2CCCN2C(=O)N1CCCN1CCN(c2nsc3ccccc23)CC1 [Example 23, 2-[3-(4-benzo[d]isothiazol-3-yl-piperazin-1-yl)-propyl]tetrahydro-pyrrolo[1,2-c]pyrimidine-1,3-dione] | 8.28 | 6.04 | 7.67 | 7.65 | 
O=C1C[C@@H]2CCCN2C(=O)N1CCCN1CCC(c2noc3cc(F)ccc23)CC1 [Example 24, 2-{3-[4-(6-Fluoro-benzo[d]isoxazol-3-yl)-piperidin-1-yl]-propyl}-tetrahydro-pyrrolo[1,2-c]pyrimidine-1,3-dione] | 8.15 |  | 5.77 | 6.99 | > 10 µM
O=C1C[C@@H]2CCCN2C(=O)N1CCCN1CCC(c2c[nH]c3ccc(F)cc23)CC1 [Example 25, 2-{3-[4-(5-Fluoro-1H-indol-3-yl)-piperidin-1-yl]-propyl}-tetrahydro-pyrrolo[1,2-c]pyrimidine-1,3-dione] | 6.71 | 6.53 | 7.23 | 7.62 | 
O=C1C[C@H]2COCCN2C(=O)N1C[C@H]1CCCC[C@H]1CN1CCN(c2nsc3ccccc23)CC1 [Example 30, 7-[2-(4-Benzo[d]isothiazol-3-yl-piperazin-1-ylmethyl)-cyclohexylmethyl]-tetrahydro-pyrimido[6,1-c][1,4]oxazine-6,8-dione] | 8.07 | 5.03 |  | 9.22 | 
COC(=O)N1CCN2C(=O)N(CCCCN3CCN(c4nsc5ccccc45)CC3)C(=O)C[C@@H]2C1 [Example 33, 7-[4-(4-Benzo[d]isothiazol-3-yl-piperazin-1-yl)-butyl]-6,8-dioxo-octahydro-pyrazino[1,2-c]pyrimidine-2-carboxylic acid methyl ester] | 9.10 | 7.21 | 9.52 | 8.77 | 
COC(=O)N1CCN2C(=O)N(CCCCN3CCN(c4nsc5ccccc45)CC3)C(=O)CC2C1 (stereo not shown) [Example 34, 7-[4-(4-Benzo[d]isothiazol-3-yl-piperazin-1-yl)-butyl]-6,8-dioxo-octahydro-pyrazino[1,2-c]pyrimidine-2-carboxylic acid methyl ester fumarate] | 9.30 | 6.82 | 8.89 | 8.62 | 
COC(=O)N1CCN2C(=O)N(CCCCN3CCC(c4noc5cc(F)ccc45)CC3)C(=O)C[C@@H]2C1 [Example 35, 7-{4-[4-(6-Fluoro-benzo[d]isoxazol-3-yl)-piperidin-1-yl]-butyl}-6,8-dioxo-octahydro-pyrazino[1,2-c]pyrimidine-2-carboxylic acid methyl ester] | 8.32 | 6.01 | 7.34 | 8.33 | 
COC(=O)N1CCN2C(=O)N(CCCCN3CCC(c4noc5cc(F)ccc45)CC3)C(=O)C[C@@H]2C1 [Example 36, 7-{4-[4-(6-Fluoro-benzo[d]isoxazol-3-yl)-piperidin-1-yl]-butyl}-6,8-dioxo-octahydro-pyrazino[1,2-c]pyrimidine-2-carboxylic acid methyl ester fumarate] | 8.66 | 5.83 | 6.89 | 8.48 | 
CC(=O)N1CCN2C(=O)N(CCCCN3CCN(c4nsc5ccccc45)CC3)C(=O)C[C@@H]2C1 [Example 37, 2-Acetyl-7-[4-(4-benzo[d]isothiazol-3-yl-piperazin-1-yl)-butyl]-hexahydro-pyrazino[1,2-c]pyrimidine-6,8-dione] | 8.82 | 5.96 | 9.52 | 8.09 | 
CC(=O)N1CCN2C(=O)N(CCCCN3CCN(c4nsc5ccccc45)CC3)C(=O)C[C@@H]2C1 [Example 38, 2-Acetyl-7-[4-(4-benzo[d]isothiazol-3-yl-piperazin-1-yl)-butyl]-hexahydro-pyrazino[1,2-c]pyrimidine-6,8-dione fumarate] | 8.66 | 6.02 |  | 8.35 | 
